Assay results reported in patent US8716242B2, “β-hairpin peptidomimetics” (priority 2009, dated 2014).
Numbered stars: 1 amine (or outer) side, 2 acyl side, 3 side chain; on linkers, the order of the positions; unused ones are H or OH. Bridge positions count the residues as written; N and C are the ends. Square brackets hold non-standard residues; d marks the D form. Peptide text beside a SMILES is read from it. * marks the point of attachment. X2 = CCCCCCCCCC[C@@H](N[*:1])C(=O)[*:2]; Octanoyl = CCCCCCCC(=O)*; Dab = NCC[C@H](N)C(=O)O

Columns and labels:
[1] = system: intracranial glioblastoma and medulloblastoma xenografts; details: systemic administration; cited from earlier work
human CXCR4 = target: T1, human CXCR4 (Homo sapiens, UniProt P61073); assay: Ca2+-assay: CXCR4-antagonizing activity (SDF-1 induced calcium mobilization); assay type: cell-based; details: mouse pre-B cell line 300-19 transfected with human CXCR4; SDF-1 induced Ca2+ mobilization; read-out: IC50% [nM] ± SD, CXCR4 receptor
T1 construct: expressed in transfected cells; host or cells: mouse pre-B cell line 300-19
T1 sequence (P61073 whole entry): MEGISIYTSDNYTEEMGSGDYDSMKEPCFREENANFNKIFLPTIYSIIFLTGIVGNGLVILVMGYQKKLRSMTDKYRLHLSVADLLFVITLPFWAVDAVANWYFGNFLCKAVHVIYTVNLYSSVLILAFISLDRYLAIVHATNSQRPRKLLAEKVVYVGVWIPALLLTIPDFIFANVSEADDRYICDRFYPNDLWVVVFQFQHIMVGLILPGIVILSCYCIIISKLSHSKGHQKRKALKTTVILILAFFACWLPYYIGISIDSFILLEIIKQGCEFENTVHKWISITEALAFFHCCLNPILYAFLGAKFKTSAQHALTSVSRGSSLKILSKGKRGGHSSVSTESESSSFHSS
Outline: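 Mouse pre-B 300-19 cells stably expressing human CXCR4, loaded with Calcium 4 dye in HBSS/20 mM HEPES pH 7.4/0.1% BSA for 1 h at RT. Peptides added before SDF-1; fluorescence (ex 485/em 525 nm) followed for 90 s. IC50 from four-parameter logistic fit of % maximal SDF-1 response.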

[2] = Cytotoxicity, MTT reduction assay, HELA cells; assay type: cell-based; details: human, HELA cells (Acc57), 12.5-50 μM
Outline: (§1)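 HELA (4000/well) and COS-7 (3400/well) cells were grown 24 h, then exposed 48 h at 37° C to peptides at 12.5, 25 and 50 μM in triplicate. MTT reduction read at 595 nm; growth % relative to time-zero, and GI50 interpolated by trend line.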

[3] = Cytotoxicity, MTT reduction assay, COS-7 cells; assay type: cell-based; details: African green monkey, COS-7 cells (CRL-1651), 12.5-50 μM
Outline: as §1

[4] = system: human red blood cells (hRBC); assay: Hemolysis of human red blood cells; assay type: cell-based; details: 20% hRBC, 1 h, 37° C.
Outline: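 Washed fresh human erythrocytes (20% v/v, ~0.9×10^9 cells/mL final) incubated with compound at 100 μM for 1 h at 37 °C with shaking. Supernatant OD540 read; % hemolysis expressed relative to 2.5% Triton X-100 lysis (100%), with PBS/0.001% acetic acid as 0%.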

[5] = Plasma stability in human plasma; assay type: in vitro ADME; details: human plasma, 37° C.; for remaining at 24 h, 10 μM: 1440 min, read-out: human pl. cpd left at 1440 min; for human pl. T1/2: up to 1440 min
Outline: (§2)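 Peptides (1 mM DMSO/H2O stock) were spiked into human or mouse plasma in triplicate and incubated at 37 °C, sampling from 0 to 1440 min. Samples were quenched in formic acid/acetonitrile and analysed by LC/MS MRM. Remaining percent of t=0 was calculated and T1/2 derived by trend fitting.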

[6] = Plasma stability in mouse plasma; assay type: in vitro ADME; details: mouse plasma, 37° C.; for remaining at 24 h, 10 μM: 1440 min, read-out: mouse pl. cpd left at 1440 min
Outline: as §2

Row | Structure (SMILES) | growth of intracranial glioblastoma and medulloblastoma xenografts [1] | IC50 (human CXCR4) [nM] | GI50 at 48 h [2] [µM] | GI50 at 48 h [3] [µM] | Hemolysis at 100 μM [4] [%] | remaining at 24 h, 10 μM [5] [%] | human pl. T1/2 [5] [h] | remaining at 24 h, 10 μM [6] [%] | half-life at 10 μM ([6]; up to 1440 min, read-out: mouse pl. T1/2) [h] | mouse pl. T1/2 ([6]; up to 1440 min) [h]
1 | c1cc(CN2CCCNCCNCCCNCC2)ccc1CN1CCCNCCNCCCNCC1 [AMD3100] | inhibits growth |  |  |  |  |  |  |  |  | 
2 | CCCCCCCC(=O)NCCCC[C@@H]1NC(=O)[C@H](Cc2ccc(O)cc2)NC(=O)[C@@H]2CSSC[C@H](NC(=O)[C@H](Cc3ccc(O)cc3)NC(=O)[C@H](Cc3c[nH]cn3)NC(=O)[C@H](Cc3ccc(O)cc3)NC(=O)[C@@H]3CCCN3C(=O)[C@H]3CCCN3C(=O)[C@H](CCCCN)NC1=O)C(=O)N[C@@H](CO)C(=O)N[C@@H](C)C(=O)N1CCC[C@@H]1C(=O)N[C@@H](CCN)C(=O)N[C@@H](CCCNC(=N)N)C(=O)N[C@@H](Cc1ccc(O)cc1)C(=O)N2 [Ex. 12] (cyclo(YHYCSA[dP][Dab]RYCYK(Octanoyl)K[dP]P); disulfide 4-11) |  | 1.8 ± 1 | > 50 | > 50 | 0.2 | 88 | 24 | 46 | 7 | 
3 | CCCCCCCC(=O)NCCCC[C@@H]1NC(=O)[C@H](Cc2c[nH]cn2)NC(=O)[C@H](Cc2ccc(O)cc2)NC(=O)[C@@H]2CCCN2C(=O)[C@H]2CCCN2C(=O)[C@H](CCCCN)NC(=O)[C@H](CCC(N)=O)NC(=O)[C@H](Cc2ccc(O)cc2)NC(=O)[C@@H]2CSSC[C@H](NC1=O)C(=O)N[C@@H](CO)C(=O)N[C@@H](C)C(=O)N1CCC[C@@H]1C(=O)N[C@@H](CCN)C(=O)N[C@@H](CCCNC(=N)N)C(=O)N[C@@H](Cc1ccc(O)cc1)C(=O)N2 [Ex. 3] (cyclo(YHK(Octanoyl)CSA[dP][Dab]RYCYQK[dP]P); disulfide 4-11) |  | 19.4 ± 13 | > 45 | > 50 | 0.6 | 86 | 24 | 86 |  | 24
4 | CCCCCCCCCC[C@H]1NC(=O)[C@H](Cc2ccc(O)cc2)NC(=O)[C@@H]2CSSC[C@H](NC(=O)[C@H](C)NC(=O)[C@H](Cc3c[nH]cn3)NC(=O)[C@H](Cc3ccc(O)cc3)NC(=O)[C@@H]3CCCN3C(=O)[C@H]3CCCN3C(=O)[C@H](CCCCN)NC1=O)C(=O)N[C@@H](CCCNC(=N)N)C(=O)N[C@@H](C)C(=O)N1CCC[C@@H]1C(=O)N[C@@H](CCN)C(=O)N[C@@H](CCCNC(=N)N)C(=O)N[C@@H](Cc1ccc(O)cc1)C(=O)N2 [Ex. 9] (cyclo(YHACRA[dP][Dab]RYCY[X2]K[dP]P); disulfide 4-11) |  | 91.3 ± 19 | > 13 | > 50 | 2.2 | 100 | 24 | 76 |  | 24
